The results in this text go back to patent US20210244712A1, “METHODS FOR TREATING PATIENTS WITH CANCER HAVING DEFECTS IN CYCLIN D REGULATION” (NysnoBio Ireland DAC, priority 2018, published 2021).

“Also recorded” adds a separate entry of the source.

Assay type in all cases: cell-based
Assay [1] has as its system A2780. In words: Cell proliferation assay. Particulars: Homo sapiens; for IC50: Ovarian A2780. On the procedure: Measurement of the inhibitive effect of compounds on cancer cell proliferation was performed. The assays were performed under the following conditions: Cells are harvested at a concentration of 4×10^4 cells/ml in media. Volumes of 100 μL/well of these cell suspensions were added to a 96 well plate using a multichannel pipette. Plates were gently agitated to ensure an even dispersion of cells over a given plate. Cells were then incubated at 37° C., 5% CO2 overnight. Following this, 100 μL of compound at varying concentrations was added to wells in triplicate. Control wells are those with 100 μL media containing 0.33% DMSO added to cell suspension (this is the equivalent volume of DMSO found in the highest concentration of drug). Plates were then gently agitated, as above, and incubated at 37° C., 5% CO2 for 72 hrs (control wells have reached 80-90% confluency). Assessment of cell proliferation in the presence of Compounds C and F was determined by the acid phosphatase assay.
Following the incubation period of 72 hrs, media was removed from the plates. Each well on the plate was washed twice with 100 μL PBS. This was then removed and 100 μL of freshly prepared phosphatase substrate (10 mM p-nitrophenol phosphate in 0.1M sodium acetate, 0.1% triton X-100, pH 5.5) was added to each well. The plates were then incubated in the dark at 37° C. for 2 hours. Color development was monitored during this time. The enzymatic reaction was stopped by the addition of 50 μL of 1N NaOH. The plate was read in a dual beam plate reader at 405 nm with a reference wavelength of 620 nm. The absorbance reading of the latter is subtracted from the former, and the effect of the drug on cell proliferation was then measured as a percentage against the control cells (DMSO), which is taken as 0% inhibition.

In assay [2] the test system is OVCAR-3. In words: Cell proliferation assay. To be noted: Homo sapiens; Ovarian OVCAR-3; loss of p16 (mutant p53).
Assay [3] relates to SW626. In words: Cell proliferation assay. Particulars: Homo sapiens; Table 7a; Ovarian (SW626).
Assay [4] relates to Cyclin D. In words: Cyclin D degradation in cell lines. Particulars: text summary of Table 7.
The subject of assay [5] is OAW28. In words: Senescence quantification (SA-βGal). Particulars: OAW28, loss of Rb expression. On the procedure:
Day 1: 96 well plate was seeded with 4000 cells/well and incubated for 24 hours at 37° C.
Day 2: Compound 42 (50, 100, or 150 nM) or palbociclib (1 μM) as positive control were added to the wells and the plate was incubated for 96 hours at 37° C.
(§1) Day 6: Senescence cells histochemical Staining Kit (Sigma) was used. The growth medium form the cells were aspirated then washed twice with fresh […]. […] 100 μL filtered Fixation Buffer was added per well and the plate was incubated for 6-7 minutes at room temperature. Then, the cells were rinsed 3 times with PBS. 50 μL of the Staining Mixture was added per well and incubated at 37° C. overnight without CO2 (staining is pH dependent). After staining, the Staining Mixture was removed, PBS and Hoechst dye (1 μg/mL) were added. Ten images were taken with Epifluorescence Microscope using the blue filter and 10 images were taken in the brightfield. The images were used to count the total cell number—the positive blue cells were counted in the bright field. The percentage of cells expressing β-galactosidase was calculated.
Method 1: Mammalian β-Galactosidase Assay Kit (Thermo Scientific) was used. […] The cells were washed once with PBS. […] The absorbance was measured at 405 nm. […]
(§2) Method 2: Assay of a portion of the lysate. […] 25 μL of lysate was removed and use it for Protein Quantification (BCA). […]

Assay [6] has as its system HCT-116. In words: Senescence quantification (SA-βGal), Example 6A. Particulars: Compound 42 250 nM, Palbociclib 1 μM, compared to control (DMSO). As for the experimental part: Day 1: 96 well plate was seeded with 4000 cells/well and incubated for 24 hours at 37° C. […]
as §1
Method 1: Mammalian β-Galactosidase Assay Kit (Thermo Scientific) was used. […] The cells were washed once with PBS. 100 μL of the β-Galactosidase Assay Reagent was added to each well and the plate was covered and incubated for 30 minutes at 37° C. without CO2. The absorbance was measured at 405 nm. […]
as §2
Senescence was quantified according to Example 4. […]

Assay [7] concerns Cyclin D. Description: Western blot of cellular biomarker cyclin D. As for the experimental part:
Various cancer cells lines were treated with Compound 42 or palbociclib (control) to measure the expression of cyclin D, cyclin E, pRb, and Rb.
Day 1: 6 well plate was seeded with 3×10^5 cells/well with a final volume of 3 mL and incubated for 24 hours at 37° C.
Day 2: The media was removed and Compound 42 (see below for dose) or palbociclib (1 μM) as positive control were added to the wells the desired concentration in cell culture media, giving a final volume of 3 mL per well. The plate was incubated for 24 hours at 37° C. (or desired period).
Day 3: The media was removed from wells and washed ×3 with PBS. 500 μl of trypsin was added to the wells and incubate until cells detach. 500 μl media was added to neutralise trypsin, transferred to 2 ml Eppendorfs, and centrifuged (1500 RPM for 5 minutes). While spinning, the wells were washed with 1 mL PBS to collect any remaining cells. This wash was used to centrifuged cell pellet. After the first spin, the supernatant was discarded and the pellet was washed with PBS collected from the previous step. The centrifugation step was repeated and the supernatant was discarded and the pellet wash again with fresh PBS. The centrifugation and wash with PBS was repeated one more time. RIPA cell lysate buffer was prepared and Protease Inhibitor Cocktail was included. The supernatant was discarded and […] RIPA cell lysate buffer was added to the pellet. The protein concentration was determined using the BCA assay kit.
Day 4: Western blot analysis was performed. 4-12% Bis-Tris gel and MOPS running buffer was used. The running buffer was made to sufficient volume of running buffer to 1× concentration. 20 μg protein (v/v loading & reducing buffer) of each sample was loaded into wells. Some proteins may require more, or less, protein loaded. The gel was ran at standard settings 200 V for 45 minutes. Once gel has run, the gel was transferred for 7 minutes using the iBlot Blotting System. The membrane was blocked using 5% non-fat powdered milk* made up in 1×TBS containing 0.1% Tween (TBS-T and incubated for 1 hr with gentle rocking. The observation from the Western blot analysis is quantified in FIGS. 2-7D.
Cell line JEKO-1 (mantle cell line with cyclin D chromosome translocation, amplification of cyclin D) was treated with DMSO (control), 500 nM of Compound 42, or 1 μM of Palbociclib. Treated cells were incubated for 48 hours and data represented in FIGS. 6A-6C represents n=1.

Regarding `Cc1ccccc1C(=O)Nc1nc(NC(=O)c2ccccc2C)n(-c2ccc(OC(F)(F)F)cc2)n1` [Compound 42, N,N′-(1-(4-(trifluoromethoxy)phenyl)-1H-1,2,4-triazole-3,5-diyl)bis(2-methylbenzamide)], the IC50 (as a rule, the midpoint of a concentration-inhibition curve) in assay [1] turned out to be 84 nM; in assay [2] it was 140 nM. In addition, the 50% effective concentration (EC50) – broadly, the concentration giving half of the maximal effect – in assay [1] (Table 7a, Ovarian (A2780)) came out at 58 nM; in assay [3], 334 nM. In assay [4], the “degrading Cyclin D, overall statement” value is reported as “effective in degrading Cyclin D”. Besides, the cell senescence result in assay [5] was “not observed; also recorded: no senescence; also recorded: += weak senescence due to loss of RB”. For the same compound, the “senescence (SA-βGal levels)” value in assay [6] was “induced senescence”. Moreover, the “normalization of cyclin D” value in assay [7] (HCT-116 (p16 mutation), Compound 42 250 nM, Palbociclib 1 μM) is on record as “normalized cyclic D”. Moreover, the “cyclin D expression” value in assay [7] (HT116, with increasing concentration) is “reduction”; in assay [7] (JEKO-1, 500 nM Compound 42, 48 hours, compared to palbociclib 1 μM), “reduction of cyclin E and cyclin D expression”; in assay [7] (OAW28), “decreased”.
For `Cc1ccccc1C(=O)Nc1nc(NC(=O)c2ccccc2C)n(-c2ccccc2)n1` [Compound F, 2-methyl-N-[5-[(2-methylbenzoyl)amino]-1-phenyl-1,2,4-triazol-3-yl]benzamide], the IC50 in assay [1] turned out to be 1300 nM.
